According to PMC4138103 (PLoS ONE, 2014):
“And” between values parts separate entries of the source, which are not always exact repeats. Identical values can stand only once.

Tested on: Sprague-Dawley rats
Experiment: Retinoid analyses in liver, serum and kidney
Assay type: in vivo, Rattus norvegicus
Set-up: key to Dose response, Liver Retinol: D: significant dose response (for results see Table 2 in the text); T: significant trend; key to Kidney Retinyl esters, Dose response / Liver All-trans RA, Dose response / Kidney All-trans RA, Dose response / Serum Retinol, Dose response: D: significant dose response (for results, see Table 2); T: significant trend
Protocol: Retinoids in liver, serum, and kidney were analyzed according to Schmidt et al.. The polar retinoids 9-cis-retinoic acid (9-cis-RA), 13-cis-retinoic acid (13-cis-RA), 13-cis-4-oxo-retinoic acid (13-cis-4-o-RA), 9-cis-4-oxo-13,14-dihydro-retinoic acid (9-cis-4-o-13,14-dh-RA), all-trans retinoic acid (all-trans RA) and the apolar retinoids retinol and retinyl palmitate were extracted by a single liquid-extraction, separated from each other via solid-phase extraction using an aminopropyl phase, and then injected onto two different HPLC systems that were coupled with UV detection. […] The limits of detection (LOD) for all-trans RA and 9c-4o-13,14-dh-RA were 0.7 and 1.0 pmol/g tissue, and 0.3 and 0.6 pmol/ml serum, respectively. Retinol and retinyl palmitate were separated on a J'sphere ODS-H80 (4.6×150 mm, 4 µm particle size) obtained from YMC (Schermbeck, Germany), and were detected at 325 nm. The LOD for retinol and retinyl palmitate were 5.6 and 5.5 pmol/g tissue, and 4.2 and 4.2 pmol/ml serum, respectively.
Data were also analyzed using the BMD method, which is based on dose-response modeling of the full data set using a nested family of exponential and Hill models. The analyses were done on data of males and females combined, using sex as a covariate. […] In that case, different Critical Effect Doses (CEDs) and CEDs at the lowest bound of the confidence interval (CED-L) were generated for each sex. If no difference between sexes is detected, a CED and CED-Ls for the combined data is generated. However, this was also done if the curve fits are close, and separate analyses for males and females were then performed manually. CEDs and CED-Ls were calculated at the predefined Critical Effect Size (CES) of 5% (EFSA standard) or 10%.

[1] = females, CES 5%, total dose based
[2] = females, CES 10%, total dose based
[3] = females, adipose tissue concentration based
[4] = males, total dose 0-1700 mg/kg bw
[5] = males, total dose 3 mg/kg bw, group mean, N=5
[6] = males, total dose 10 mg/kg bw, group mean, N=5
[7] = males, total dose 30 mg/kg bw, group mean, N=5
[8] = males, total dose 100 mg/kg bw, group mean, N=5
[9] = males, total dose 300 mg/kg bw, Liver
[10] = males, total dose 300 mg/kg bw, group mean, N=5
[11] = males, total dose 1000 mg/kg bw, group mean, N=5
[12] = males, total dose 1700 mg/kg bw, group mean, N=5
[13] = males, CES 5%, total dose based
[14] = males, CES 10%, total dose based
[15] = males, adipose tissue concentration based
[16] = males, controls vs high dose, fitted model
[17] = males, total dose 30 mg/kg bw, n=1

## Clc1cc(Cl)c(-c2cc(Cl)c(Cl)c(Cl)c2Cl)cc1Cl [PCB 180, 2,2′,3′,4,4′,5,5′-heptachlorobiphenyl]
[1]
  Kidney all-trans RA amount, CED-L: 319 mg/kg bw
  Kidney all-trans RA concentration, CED: 457 mg/kg bw
  Kidney all-trans RA concentration, CED-L: 321 mg/kg bw
  Kidney retinol amount, CED: 355 mg/kg bw
  Kidney retinol amount, CED-L: 221 mg/kg bw
  Kidney retinol concentration, CED: 335 mg/kg bw
  Kidney retinol concentration, CED-L: 216 mg/kg bw
  Liver 9c-4o-13,14-dh-RA amount, CED: 13.1 mg/kg bw
  Liver 9c-4o-13,14-dh-RA amount, CED-L: 8.29 mg/kg bw
  Liver 9c-4o-13,14-dh-RA conc., CED: 12 mg/kg bw and 12.2 mg/kg bw
  Liver 9c-4o-13,14-dh-RA conc., CED-L: 8.77 mg/kg bw
  Liver retinol concentration, CED: 156 mg/kg bw
  Liver retinol concentration, CED-L: 119 mg/kg bw
  Liver retinyl esters amount, CED: 254 mg/kg bw
  Liver retinyl esters amount, CED-L: 189 mg/kg bw
  Liver retinyl esters concentration, CED: 122 mg/kg bw
  Liver retinyl esters concentration, CED-L: 104 mg/kg bw
  Serum retinol concentration, CED: 400 mg/kg bw
  Serum retinol concentration, CED-L: 242 mg/kg bw
[2]
  Kidney all-trans RA amount, CED: 965 mg/kg bw
  Kidney all-trans RA amount, CED-L: 625 mg/kg bw
  Kidney all-trans RA concentration, CED: 892 mg/kg bw
  Kidney all-trans RA concentration, CED-L: 626 mg/kg bw
  Kidney retinol amount, CED: 694 mg/kg bw
  Kidney retinol amount, CED-L: 431 mg/kg bw
  Kidney retinol concentration, CED: 655 mg/kg bw
  Kidney retinol concentration, CED-L: 421 mg/kg bw
  Liver 9c-4o-13,14-dh-RA amount, CED: 27.2 mg/kg bw
  Liver 9c-4o-13,14-dh-RA amount, CED-L: 17.2 mg/kg bw
  Liver 9c-4o-13,14-dh-RA conc., CED: 25.3 mg/kg bw
  Liver 9c-4o-13,14-dh-RA conc., CED-L: 18.2 mg/kg bw
  Liver retinol concentration, CED: 374 mg/kg bw
  Liver retinol concentration, CED-L: 263 mg/kg bw
  Liver retinyl esters amount, CED: 522 mg/kg bw
  Liver retinyl esters amount, CED-L: 388 mg/kg bw
  Liver retinyl esters concentration, CED: 252 mg/kg bw
  Liver retinyl esters concentration, CED-L: 214 mg/kg bw
  Serum retinol concentration, CED: 781 mg/kg bw
  Serum retinol concentration, CED-L: 474 mg/kg bw
[3]
  Kidney all-trans RA concentration, CED: 2930 µg/g lipid
  Kidney retinol concentration, CED: 2060 µg/g lipid
  Liver 9c-4o-13,14-dh-RA concentration, CED: 55.5 µg/g lipid and 56 µg/g lipid
  Liver retinol concentration, CED: 1000 µg/g lipid
  Liver retinyl ester concentration, CED: 793 µg/g lipid
  Serum retinol concentration, CED: 2470 µg/g lipid
females, controls vs high dose, fitted model
  Serum retinol concentration, Maximum response: 23.1%
males
  Liver retinol concentration, max. decrease: 47%
  Liver retinyl ester concentration, max. decrease: 63%
[4]
  Dose response, Kidney Retinol: D, T
  Dose response, Kidney Retinyl esters: D, T
  Dose response, Liver All-trans RA: D, T
  Dose response, Liver Retinol: D
  Dose response, Liver Retinyl esters: D, T
  Kidney Retinol, Dose response: D, T
  Kidney Retinyl esters, Dose response: D
  Liver All-trans RA, Dose response: D
  Liver Retinol, Dose response: D, T
  Liver Retinyl esters, Dose response: D, T
[5]
  Kidney All-trans RA: 35.9 pmol
  Kidney Retinol: 14.2 nmol
  Kidney Retinyl esters: 4.99 nmol
  Liver 9-cis-4o-13,14-dh RA: 218 pmol
  Liver All-trans RA: 544 pmol
  Liver Retinol: 0.28 µmol
  Liver Retinyl esters: 11.5 µmol
[6]
  Kidney All-trans RA: 36.9 pmol
  Kidney Retinol: 17.6 nmol
  Kidney Retinyl esters: 8.73 nmol
  Liver All-trans RA: 632 pmol
  Liver Retinol: 0.32 µmol
  Liver Retinyl esters: 12.5 µmol
males, total dose 30 mg/kg bw
  Kidney All-trans RA: 31.8 pmol/g
  Kidney Retinol: 16.9 nmol/g
  Kidney Retinyl esters: 7.83 nmol/g
  Liver All-trans RA: 44.5 pmol/g
  Liver Retinol: 20.5 nmol/g
  Liver Retinyl esters: 0.77 µmol/g
  Serum Retinyl esters: 46.5 pmol/mL
males, total dose 30 mg/kg bw, Liver
  Liver Retinyl esters: 46.5 pmol/mL
males, total dose 30 mg/kg bw, Liver, n=4
  Liver Retinol: 1.65 pmol/mL
[7]
  Kidney All-trans RA: 33.3 pmol
  Kidney Retinol: 17.5 nmol
  Kidney Retinyl esters: 8.12 nmol
  Liver All-trans RA: 623 pmol
  Liver Retinol: 0.29 µmol
  Liver Retinyl esters: 10.7 µmol
males, total dose 30 mg/kg bw, n=4
  Serum Retinol: 1.65 pmol/mL
males, total dose 100 mg/kg bw
  Kidney All-trans RA: 34.8 pmol/g
  Kidney Retinol: 16.3 nmol/g
  Kidney Retinyl esters: 8.27 nmol/g
  Liver All-trans RA: 44.4 pmol/g
  Liver Retinol: 15.7 nmol/g
  Liver Retinyl esters: 0.62 µmol/g
  Serum Retinyl esters: 84.5 pmol/mL
males, total dose 100 mg/kg bw, Liver
  Liver Retinyl esters: 84.5 pmol/mL
males, total dose 100 mg/kg bw, Liver, n=4
  Liver Retinol: 1.75 pmol/mL
[8]
  Kidney All-trans RA: 37.0 pmol
  Kidney Retinol: 17.3 nmol
  Kidney Retinyl esters: 8.84 nmol
  Liver All-trans RA: 744 pmol
  Liver Retinol: 0.26 µmol
  Liver Retinyl esters: 10.3 µmol
males, total dose 100 mg/kg bw, n=3
  Liver 9-cis-4o-13,14-dh-RA: 22.7 pmol/g
males, total dose 100 mg/kg bw, n=4
  Serum Retinol: 1.75 pmol/mL
males, total dose 300 mg/kg bw
  Kidney All-trans RA: 35.9 pmol/g
  Kidney Retinol: 17.5 nmol/g
  Kidney Retinyl esters: 13.9 nmol/g
  Liver All-trans RA: 48.1 pmol/g
  Liver Retinol: 17.4 nmol/g
  Liver Retinyl esters: 0.56 µmol/g
  Serum Retinol: 1.64 pmol/mL
  Serum Retinyl esters: 67.8 pmol/mL
[9]
  Liver Retinol: 1.64 pmol/mL
  Liver Retinyl esters: 67.8 pmol/mL
[10]
  Kidney All-trans RA: 37.8 pmol
  Kidney Retinol: 18.2 nmol
  Kidney Retinyl esters: 14.5 nmol
  Liver All-trans RA: 863 pmol
  Liver Retinol: 0.31 µmol
  Liver Retinyl esters: 10.1 µmol
males, total dose 300 mg/kg bw, n=4
  Liver 9-cis-4o-13,14-dh-RA: 20.9 pmol/g
[11]
  Kidney All-trans RA: 35.9 pmol
  Kidney Retinol: 24.5 nmol
  Kidney Retinyl esters: 24.5 nmol
  Liver 9-cis-4o-13,14-dh RA: 455 pmol
  Liver All-trans RA: 1077 pmol
  Liver Retinol: 0.27 µmol
  Liver Retinyl esters: 8.2 µmol
[12]
  Kidney All-trans RA: 32.4 pmol
  Kidney Retinol: 23.3 nmol
  Kidney Retinyl esters: 25.2 nmol
  Liver All-trans RA: 1178 pmol
  Liver Retinol: 0.23 µmol
  Liver Retinyl esters: 6.4 µmol
[13]
  Kidney retinol amount, CED: 206 mg/kg bw
  Kidney retinol amount, CED-L: 147 mg/kg bw
  Kidney retinol concentration, CED: 200 mg/kg bw
  Kidney retinol concentration, CED-L: 149 mg/kg bw
  Kidney retinyl esters amount, CED: 9.14 mg/kg bw
  Kidney retinyl esters amount, CED-L: 3.10 mg/kg bw
  Kidney retinyl esters concentration, CED: 9.9 mg/kg bw and 9.88 mg/kg bw
  Kidney retinyl esters concentration, CED-L: 3.35 mg/kg bw
  Liver all-trans RA amount, CED: 21.7 mg/kg bw
  Liver all-trans RA amount, CED-L: 9.07 mg/kg bw
  Liver all-trans RA concentration, CED: 450 mg/kg bw
  Liver all-trans RA concentration, CED-L: 268 mg/kg bw
  Liver retinol amount, CED: 437 mg/kg bw
  Liver retinol amount, CED-L: 261 mg/kg bw
  Liver retinol concentration, CED: 32 mg/kg bw and 31.9 mg/kg bw
  Liver retinol concentration, CED-L: 6.10 mg/kg bw
  Liver retinyl esters amount, CED: 145 mg/kg bw
  Liver retinyl esters amount, CED-L: 123 mg/kg bw
  Liver retinyl esters concentration, CED: 22 mg/kg bw and 21.5 mg/kg bw
  Liver retinyl esters concentration, CED-L: 12.9 mg/kg bw
[14]
  Kidney retinol amount, CED: 402 mg/kg bw
  Kidney retinol amount, CED-L: 288 mg/kg bw
  Kidney retinol concentration, CED: 390 mg/kg bw
  Kidney retinol concentration, CED-L: 291 mg/kg bw
  Kidney retinyl esters amount, CED: 18.5 mg/kg bw
  Kidney retinyl esters amount, CED-L: 6.26 mg/kg bw
  Kidney retinyl esters concentration, CED: 20 mg/kg bw
  Kidney retinyl esters concentration, CED-L: 6.77 mg/kg bw
  Liver all-trans RA amount, CED: 44.7 mg/kg bw
  Liver all-trans RA amount, CED-L: 18.7 mg/kg bw
  Liver all-trans RA concentration, CED: 879 mg/kg bw
  Liver all-trans RA concentration, CED-L: 523 mg/kg bw
  Liver retinol amount, CED: 897 mg/kg bw
  Liver retinol amount, CED-L: 536 mg/kg bw
  Liver retinol concentration, CED: 56 mg/kg bw
  Liver retinol concentration, CED-L: 10.4 mg/kg bw
  Liver retinyl esters amount, CED: 296 mg/kg bw
  Liver retinyl esters amount, CED-L: 252 mg/kg bw
  Liver retinyl esters concentration, CED: 43.9 mg/kg bw
  Liver retinyl esters concentration, CED-L: 26.6 mg/kg bw
[15]
  Kidney retinol concentration, CED: 863 µg/g lipid
  Kidney retinyl ester concentration, CED: 42 µg/g lipid
  Liver all-trans RA concentration, CED: 1920 µg/g lipid
  Liver retinol concentration, CED: 31 µg/g lipid
  Liver retinol, CED-L: 18800 ng/g lipid
  Liver retinyl ester concentration, CED: 108 µg/g lipid
[16]
  Kidney retinol concentration, Maximum response: 51.5%
  Liver all-trans RA concentration, Maximum response: 20% and 20.3%
males, total dose 10 mg/kg bw, group mean, n=3
  Liver 9-cis-4o-13,14-dh RA: 163 pmol
[17]
  Liver 9-cis-4o-13,14-dh RA: 389b pmol
  Liver 9-cis-4o-13,14-dh-RA: 30.8 pmol·days/g
males, total dose 100 mg/kg bw, group mean, n=3
  Liver 9-cis-4o-13,14-dh RA: 434 pmol
males, total dose 300 mg/kg bw, group mean, n=4
  Liver 9-cis-4o-13,14-dh RA: 403 pmol
males, total dose 1700 mg/kg bw, group mean, n=4, one exceptionally high value excluded as an outlier
  Liver 9-cis-4o-13,14-dh RA: 454 pmol
